Laboratory results from publication PMC4917206, “Chemical Modification of Influenza CD8+ T-Cell Epitopes Enhances Their Immunogenicity Regardless of Immunodominance” (PLoS ONE, 2016).
“Also recorded” adds a separate entry of the source.

Key:
[1] = test system: […]-specific T cell clone; type: cell-based
[2] = test system: splenocytes of WT-vaccinated HLA-A2 tg mice; type: cell-based, mouse; set-up: key to response compared with WT peptide control, mouse splenocytes: *: Lower response than WT peptide
[3] = test system: CD8+ T cells of HLA-A2+ human donors; type: cell-based; set-up: key to response compared with WT peptide control, DC model: *: Lower response than WT peptide
HLA-A2 transgenic mice = details: mouse, in vivo; for IFN-γ ELISpot response after restimulation with WT peptide / IFN-γ ELISpot response after restimulation with homologous peptide: sc
HLA-A*0201 = target: T1, HLA-A*0201 (Homo sapiens, UniProt P04439, D140Y/D185E/D98H/E176V/E277Q/G131W/G231S/I119V/I121R/I166T/I218V/L300P/L318F/N151K/N90K/P208A/P217A/Q86G/Q94H/R138H/R169H/T345S); type: binding
T1 construct: Soluble MHC was dissolved in PBS containing 0.5 mg/ml bovine γ-globulin; made in house

Substance | T cell clone: percentage of IFN-γ producing T cells, Average [1] | rank by T cell activation, T cell clone [1] | Mouse splenocytes (ex vivo assay), Average [2] | rank by T cell activation, mouse splenocytes [2] | DC model: IFN-γ-positive CD8+ T cells, Average [3] | IFN-γ ELISpot response after restimulation with WT peptide (HLA-A2 transgenic mice) | IFN-γ ELISpot response after restimulation with homologous peptide (HLA-A2 transgenic mice) | FP binding score, percentage inhibition of tracer peptide binding, 4h (HLA-A*0201) | FP binding score, percentage inhibition of tracer peptide binding, 24h (HLA-A*0201) | response compared with WT peptide control, mouse splenocytes [2] | proportion of vaccinated mice that respond (HLA-A2 transgenic mice) | rank by T cell activation, DC model [3] | response compared with WT peptide control, DC model [3] | T cell (IFN-γ) response of vaccinated HLA-A2 tg mice, restimulation not specified or both (HLA-A2 transgenic mice) | binding score (HLA-A*0201) | number of mice responding to WT peptide restimulation (HLA-A2 transgenic mice) | number of mice responding to homologous peptide restimulation (HLA-A2 transgenic mice)
yILGFVFTL [G9] | 1.1% | Lower 3 | 20 | Lower 3 | 0.11 | – | – | – | – | – | – | – | – | – | – | – | –
[SOME][2-AOC]LSTVLGV [N92] | – | – | 380 | Upper 3 | 0.04 | did not respond to restimulation | did not respond to restimulation | 84% | 81% | N92 ^* | – | – | – | – | – | – | –
NMLSTVLGV [NWT, reference compound] | – | – | 436 | – | 0.04 | – | – | 53% | 46% | – | approximately one out of six | – | – | – | – | – | –
[4-PYRA]ILGFVFTL [G15] | 33.4% | – | 53 | – | 0.17 | – | – | – | – | – | – | Upper 3 | G15 ^* | – | – | – | –
[am-phg]MYSDFHFI [F111] | – | – | 86 | – | 0.08 | higher responses compared to WT-peptide vaccination; also recorded: higher IFN-γ responses than WT peptide-vaccinated mice | – | 75% | 72% | – | – | – | – | improved T cell responses; also recorded: improved immunogenicity; also recorded: higher homologous and heterologous responses | 72% | – | –
G[2-AOC]LGFVFT[PRG] [G26] | – | – | 61 | – | 0.45 | do not always react to restimulation with WT peptide | – | 60% | 54% | – | – | Upper 3 | – | – | – | – | –
[am-phg]MLSTVLGV [N46] | – | – | 363 | – | 0.02 | reduced to zero; also recorded: do not always react to restimulation with WT peptide | increased the responses compared to vaccination with WT peptide | 80% | 76% | – | – | Lower 3 | – | – | 81% | no responders | four
[4-pyra]ILGFVFTL [G10] | 45.4% | – | 47 | – | 0.14 | – | – | – | – | – | – | – | – | – | – | – | –
